Values after ≈ are worked out from the molar mass of the structure shown. Like-named read-outs stand apart in the source and are kept apart here.
Key:
[1] = system: HT-1088: human fibrosarcoma cell; assay: anti-cancer activity test (cytotoxicity), HT; type: cell-based; conditions: HT cells; for IC50: Homo sapiens
[2] = system: Mel2: human melanoma cell; assay: anti-cancer activity test (cytotoxicity), Mel2; type: cell-based; conditions: Mel2 cells; for IC50: Homo sapiens
Col2: human colon cell = assay: anti-cancer activity test (cytotoxicity), Col2; type: cell-based; conditions: Col2 cells; for IC50: Homo sapiens
[3] = system: KB-V: drug resisteant KB cell; assay: anti-cancer activity test (cytotoxicity), KB-V; type: cell-based, human; conditions: KB-V cells; for IC50: Homo sapiens
[4] = system: KB: human oral epidormaid Carcinama cell; assay: anti-cancer activity test (cytotoxicity), KB; type: cell-based; conditions: KB cells; for IC50: Homo sapiens
Method: (§1) The compounds were further screened on 60 human cancer cell lines by Developmental Therapeutics Program Human Tumor Cell Line Screen set up by the National Cancer Institute of the U. S. A. The screening procedures are described briefly hereinafter. Cell suspensions that were diluted according to the particular cell type and the expected target cell density (5000-40,000 cells per well based on cell growth characteristics) were added by pipet (100 μL) into 96-well microtiterplates. Inoculates were allowed a preincubation period of 24 hours at 37° C. for stabilization. Dilutions at twice the intended test concentration were added in 100 μL aliquots to the microtiter plate wells at time zero. Usually, test compounds were evaluated at five 10-fold dilutions. In routine testing, the highest well concentration was 10^−4 M, but for the standard agents the highest well concentration used depended on the agent. Incubations lasted for 48 hours in 5% CO2 atmosphere and 100% humidity. The cells were assayed by using the sulforhodamine B assay. A plate reader was used to read the optical densities, and a microcomputer processed the optical densities into the special concentration parameters. The results of these tests with representative compounds of the present invention appear in Table 1 and 2

U373: human glioma cell = assay: anti-cancer activity test (cytotoxicity), U373; type: cell-based; conditions: U373 cells; for IC50: Homo sapiens, U373 MG
Lu1: human lung cell = assay: anti-cancer activity test (cytotoxicity), Lu1; type: cell-based; conditions: Lu1 cells; for IC50: Homo sapiens
[5] = system: ZR-75-1: human breast cell; assay: anti-cancer activity test (cytotoxicity), ZR-75-1; type: cell-based; conditions: ZR-75-1 cells; for IC50: Homo sapiens
[6] = system: A431: human squamous cell; assay: anti-cancer activity test (cytotoxicity), A431; type: cell-based; conditions: A431 cells; for IC50: Homo sapiens, A-431
[7] = system: LNCaP: human prostate cell; assay: anti-cancer activity test (cytotoxicity), LNCaP; type: cell-based; conditions: LNCaP cells; for IC50: Homo sapiens
BC-1: human breast cell = assay: anti-cancer activity test (cytotoxicity), BC 1; type: cell-based; conditions: BC 1 cells; for IC50: Homo sapiens, BC1
HIV-1 RT(p66) = molecular target: T1, HIV-1 RT(p66) (Human immunodeficiency virus type 1 group M subtype B, UniProt P04585); assay: anti-virus activity test, HIV-1 RT(p66) inhibition; type: biochemical; conditions: for activity inhibition (%) / inhibition at 200 µg/mL: at 200 μg/ml; for activity inhibition (%) / IC50 / inhibition at 200 µg/mL: HIV-1 RT(p66); for activity inhibition / anti-virus ability (in words): at the concentration of 200 μg/ml
T1 construct: 1-10 at 200 μg/ml to HIV-1 RT(p66)

[8] = system: P-388: mouse lymphaid Macrophage cell; assay: anti-cancer activity test (cytotoxicity), P-388; type: cell-based; conditions: P-388 cells; for IC50: Mus musculus, P388
human cancer cell lines = assay: anti-cancer activity test, overall over the cell line panel; type: cell-based; conditions: summary of Table 1
Method: as §1

[9] = read-out: IC50 (μg/ml) (converted)

Molecule | IC50 HT [1] | IC50 Mel2 [2] | IC50 Col2 (Col2: human colon cell) | activity inhibition / anti-virus ability (in words) (HIV-1 RT(p66)) | IC50 [1] | IC50 [2] | IC50 (Col2: human colon cell) | IC50 ([3]; with vinblastine (+VLB)) | IC50 ([3]; without vinblastine (−VLB)) | cytotoxic activity to cancer cell lines (in words) (human cancer cell lines) | IC50 [4] | IC50 (U373: human glioma cell) | IC50 (Lu1: human lung cell) | IC50 [5] | IC50 [6] | IC50 [7] | IC50 (BC-1: human breast cell) | IC50 (HIV-1 RT(p66); [9]) | inhibition at 200 µg/mL (HIV-1 RT(p66)) | IC50 [8] | other results
1-benzyl carbamidoacetamidoanthraquinone [Example 1] | 13.9 µg/mL | >20 µg/mL | >20 µg/mL | anti-virus ability but not so strong as the others |  |  |  |  |  |  |  |  |  |  |  |  |  |  |  |  | IC50 KB-V (+VLB) ([3]; with vinblastine (+VLB)): 3.8 µg/mL; IC50 KB-V (−VLB) ([3]; without vinblastine (−VLB)): >20 µg/mL; IC50 KB [4]: >20 µg/mL; IC50 U373 (U373: human glioma cell): >20 µg/mL; IC50 Lu1 (Lu1: human lung cell): >20 µg/mL; IC50 ZR-75-1 [5]: >20 µg/mL; IC50 A431 [6]: >20 µg/mL; IC50 LNCaP [7]: 14.7 µg/mL; IC50 BC 1 (BC-1: human breast cell): >20 µg/mL; activity inhibition (%) (HIV-1 RT(p66)): 47.0%; IC50 P-388 [8]: >5 µg/mL
2-Benzyl Carbamidoacetamidoanthraquinone [Example 9] | 8.3 µg/mL | 15.1 µg/mL | 9.6 µg/mL | anti-virus ability but not so strong as the others |  |  |  |  |  |  |  |  |  |  |  |  |  |  |  |  | IC50 KB-V (+VLB) ([3]; with vinblastine (+VLB)): 1.4 µg/mL; IC50 KB-V (−VLB) ([3]; without vinblastine (−VLB)): >20 µg/mL; IC50 KB [4]: 19.2 µg/mL; IC50 U373 (U373: human glioma cell): 4.7 µg/mL; IC50 Lu1 (Lu1: human lung cell): 9.6 µg/mL; IC50 ZR-75-1 [5]: 6.4 µg/mL; IC50 A431 [6]: 1.7 µg/mL; IC50 LNCaP [7]: >20 µg/mL; IC50 BC 1 (BC-1: human breast cell): 6.4 µg/mL; activity inhibition (%) (HIV-1 RT(p66)): 53.4%; IC50 P-388 [8]: >5 µg/mL
4-amino-1-benzyl Carbamidoacetamidoanthraquinone [Example 5] | >20 µg/mL | >20 µg/mL | >20 µg/mL | anti-virus ability but not so strong as the others |  |  |  |  |  |  |  |  |  |  |  |  |  |  |  |  | IC50 KB-V (+VLB) ([3]; with vinblastine (+VLB)): 2.9 µg/mL; IC50 KB-V (−VLB) ([3]; without vinblastine (−VLB)): >20 µg/mL; IC50 KB [4]: >20 µg/mL; IC50 U373 (U373: human glioma cell): >20 µg/mL; IC50 Lu1 (Lu1: human lung cell): >20 µg/mL; IC50 ZR-75-1 [5]: >20 µg/mL; IC50 A431 [6]: >20 µg/mL; IC50 LNCaP [7]: >20 µg/mL; IC50 BC 1 (BC-1: human breast cell): >20 µg/mL; activity inhibition (%) (HIV-1 RT(p66)): 23.0%; IC50 P-388 [8]: >5 µg/mL
N=C(N)NCC(=O)Nc1ccc(N)c2c1C(=O)c1ccccc1C2=O [Example 2, 4-amino-1-guanido acetamidoanthraquinone] |  |  |  | excellent effect on activity inhibition | 2 µg/mL (≈ 5.93 µM) | 4.4 µg/mL (≈ 13 µM) | 4.2 µg/mL (≈ 12.5 µM) | 16 µg/mL (≈ 47.4 µM) | > 20 µg/mL | more effective to most cancer cell lines | 1.2 µg/mL (≈ 3.56 µM) | 0.6 µg/mL (≈ 1.78 µM) | 3.1 µg/mL (≈ 9.19 µM) | 3.4 µg/mL (≈ 10.1 µM) | 0.4 µg/mL (≈ 1.19 µM) | 4.1 µg/mL (≈ 12.2 µM) | 1.6 µg/mL (≈ 4.74 µM) | 25.8 µM | 99.5% | > 5 µg/mL | 
N=C(N)NCC(=O)Nc1cccc2c1C(=O)c1cccc(N)c1C2=O [Example 3, 5-amino-1-guanido acetamidoanthraquinone] |  |  |  | excellent effect on activity inhibition | 2.5 µg/mL (≈ 7.41 µM) | 12 µg/mL (≈ 35.6 µM) | 4.7 µg/mL (≈ 13.9 µM) | 13.2 µg/mL (≈ 39.1 µM) | > 20 µg/mL | more effective to most cancer cell lines | 4.2 µg/mL (≈ 12.5 µM) | 1 µg/mL (≈ 2.96 µM) | 9.3 µg/mL (≈ 27.6 µM) | 1.7 µg/mL (≈ 5.04 µM) | 0.2 µg/mL (≈ 0.593 µM) | 9 µg/mL (≈ 26.7 µM) | 3 µg/mL (≈ 8.89 µM) | 20.5 µM | 99.6% | > 5 µg/mL | 
N=C(N)NCC(=O)Nc1ccc2c(c1)C(=O)c1ccccc1C2=O [Example 4, 2-guanidinoacetamido anthraquinone] | 2.1 µg/mL (≈ 6.52 µM) | 9.8 µg/mL (≈ 30.4 µM) | 12.1 µg/mL (≈ 37.5 µM) | excellent effect on activity inhibition |  |  |  |  |  | more effective to most cancer cell lines |  |  |  |  |  |  |  |  |  |  | IC50 KB-V (+VLB) ([3]; with vinblastine (+VLB)): 7.5 µg/mL (≈ 23.3 µM); IC50 KB-V (−VLB) ([3]; without vinblastine (−VLB)): >20 µg/mL; IC50 KB [4]: 2.9 µg/mL (≈ 9 µM); IC50 U373 (U373: human glioma cell): 0.88 µg/mL (≈ 2.73 µM); IC50 Lu1 (Lu1: human lung cell): 14.1 µg/mL (≈ 43.7 µM); IC50 ZR-75-1 [5]: 3.6 µg/mL (≈ 11.2 µM); IC50 A431 [6]: 0.8 µg/mL (≈ 2.48 µM); IC50 LNCaP [7]: 12.5 µg/mL (≈ 38.8 µM); IC50 BC 1 (BC-1: human breast cell): 4.9 µg/mL (≈ 15.2 µM); IC50 (HIV-1 RT(p66)): 18.9 µg/mL; activity inhibition (%) (HIV-1 RT(p66)): 99.4%; IC50 P-388 [8]: >5 µg/mL
N=C(N)NCC(=O)Nc1ccc2c(c1N)C(=O)c1ccccc1C2=O [Example 6, 1-amino-2-guanido acetamidoanthraquinone] |  |  |  | excellent effect on activity inhibition | 4.5 µg/mL (≈ 13.3 µM) | > 20 µg/mL | > 20 µg/mL | 7.9 µg/mL (≈ 23.4 µM) | > 20 µg/mL | more effective to most cancer cell lines | 5.9 µg/mL (≈ 17.5 µM) | 2 µg/mL (≈ 5.93 µM) | > 20 µg/mL | 6.9 µg/mL (≈ 20.5 µM) | 0.9 µg/mL (≈ 2.67 µM) | > 20 µg/mL | 7.8 µg/mL (≈ 23.1 µM) | 119 µM | 99.7% | > 5 µg/mL | 
N=C(N)NCC(=O)Nc1ccc2c(c1)C(=O)c1ccc(N)cc1C2=O [Example 7, 6-amino-2-guanidoacetamidoanthraquinone] |  |  |  | excellent effect on activity inhibition | 1.6 µg/mL (≈ 4.74 µM) | 6.8 µg/mL (≈ 20.2 µM) | 3.2 µg/mL (≈ 9.49 µM) | > 20 µg/mL | > 20 µg/mL | more effective to most cancer cell lines | 1.2 µg/mL (≈ 3.56 µM) | 0.4 µg/mL (≈ 1.19 µM) | > 20 µg/mL | 3.3 µg/mL (≈ 9.78 µM) | 0.6 µg/mL (≈ 1.78 µM) | 6.3 µg/mL (≈ 18.7 µM) | 3.6 µg/mL (≈ 10.7 µM) | 37.1 µM | 99.7% | 1.1 µg/mL (≈ 3.26 µM) | 
N=C(N)NCC(=O)Nc1ccc2c(c1)C(=O)c1ccc(NC(=O)CNC(=N)N)cc1C2=O [Example 8, 2,6-di(guanidinoacetamido)anthraquinone] |  |  |  |  | 6 µg/mL (≈ 13.7 µM) | 12.7 µg/mL (≈ 29.1 µM) | 3.3 µg/mL (≈ 7.56 µM) | > 20 µg/mL | > 20 µg/mL | more effective to most cancer cell lines | 1.4 µg/mL (≈ 3.21 µM) | 8.6 µg/mL (≈ 19.7 µM) | 12.2 µg/mL (≈ 28 µM) | 7 µg/mL (≈ 16 µM) | 5.8 µg/mL (≈ 13.3 µM) | 7.2 µg/mL (≈ 16.5 µM) | 5 µg/mL (≈ 11.5 µM) |  | 29.3% | > 5 µg/mL | 
N=C(N)NCC(=O)Nc1ccc2c(c1NC(=O)CNC(=N)N)C(=O)c1ccccc1C2=O [Example 10, 1,2-di(guanidinoacetamido)anthraquinone] |  |  |  | excellent effect on activity inhibition | 8.9 µg/mL (≈ 20.4 µM) | > 20 µg/mL | > 20 µg/mL | 6.3 µg/mL (≈ 14.4 µM) | > 20 µg/mL | more effective to most cancer cell lines | 3.2 µg/mL (≈ 7.33 µM) | 6.9 µg/mL (≈ 15.8 µM) | > 20 µg/mL | > 20 µg/mL | 1.7 µg/mL (≈ 3.9 µM) | 18 µg/mL (≈ 41.2 µM) | 10.2 µg/mL (≈ 23.4 µM) | 69.4 µM | 92.3% | > 5 µg/mL | 

Source: US6777564B2, “Anthraquinone compound” (Industrial Technology Research Institute, priority 2001, dated 2004)
